# Article PMC8086025, “A benzopyran with antiarrhythmic activity is an inhibitor of Kir3.1-containing potassium channels” (The Journal of Biological Chemistry, 2021)
# “And” between values parts separate entries of the source, which are not always exact repeats. Equal values may be shown once. “Also recorded” adds a separate entry of the source.
# Tests used:
# Kir2.1 = biological target: T1, Kir2.1 (Homo sapiens, UniProt P63252); assay: Cloned cardiac ion channel manual patch clamp, Kir2.1; format: cell-based; conditions: MPC (manual patch clamp)
# T1 construct: host or cells: HEK293
# T1 sequence (P63252 whole entry): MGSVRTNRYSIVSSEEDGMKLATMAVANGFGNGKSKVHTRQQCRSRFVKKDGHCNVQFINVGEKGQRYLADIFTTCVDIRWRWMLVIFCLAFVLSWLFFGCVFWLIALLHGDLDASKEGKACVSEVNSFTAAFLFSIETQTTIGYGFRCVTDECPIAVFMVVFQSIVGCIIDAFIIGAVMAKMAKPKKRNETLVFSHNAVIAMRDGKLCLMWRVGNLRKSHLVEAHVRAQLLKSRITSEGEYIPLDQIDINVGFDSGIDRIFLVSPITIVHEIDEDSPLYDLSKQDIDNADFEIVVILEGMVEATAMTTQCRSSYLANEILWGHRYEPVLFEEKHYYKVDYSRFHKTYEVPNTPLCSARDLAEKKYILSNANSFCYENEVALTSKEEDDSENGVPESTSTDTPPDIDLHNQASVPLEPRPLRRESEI
# Neurokinin NK1 = biological target: T2, Neurokinin NK1 (Homo sapiens, UniProt P25103); assay: Radioligand binding, [125I]-Substance P LYS3, U373MG uppsala; conditions: read-out: % Specific Binding at 10 µM
# T2 construct: endogenous in cells; host or cells: U373MG uppsala
# T2 sequence (P25103 whole entry): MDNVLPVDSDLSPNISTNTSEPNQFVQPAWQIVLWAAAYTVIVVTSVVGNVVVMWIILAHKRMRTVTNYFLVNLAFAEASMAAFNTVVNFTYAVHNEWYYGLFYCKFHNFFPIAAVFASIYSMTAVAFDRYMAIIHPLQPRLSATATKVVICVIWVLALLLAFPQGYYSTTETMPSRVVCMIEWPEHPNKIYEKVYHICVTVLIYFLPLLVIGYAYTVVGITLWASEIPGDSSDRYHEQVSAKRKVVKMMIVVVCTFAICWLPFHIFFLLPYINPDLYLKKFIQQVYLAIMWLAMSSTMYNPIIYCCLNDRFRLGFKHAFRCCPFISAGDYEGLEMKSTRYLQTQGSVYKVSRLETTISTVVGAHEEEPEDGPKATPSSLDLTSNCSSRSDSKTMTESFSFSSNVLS
# NaV1.2 and NaVβ1 = biological target: T3, NaV1.2 and NaVβ1 (Rattus norvegicus, UniProt P04775); assay: NaV1.2 currents in Xenopus oocytes; format: cell-based
# T3 construct: expressed in transfected cells; host or cells: Xenopus oocytes
# T3 sequence (P04775 whole entry): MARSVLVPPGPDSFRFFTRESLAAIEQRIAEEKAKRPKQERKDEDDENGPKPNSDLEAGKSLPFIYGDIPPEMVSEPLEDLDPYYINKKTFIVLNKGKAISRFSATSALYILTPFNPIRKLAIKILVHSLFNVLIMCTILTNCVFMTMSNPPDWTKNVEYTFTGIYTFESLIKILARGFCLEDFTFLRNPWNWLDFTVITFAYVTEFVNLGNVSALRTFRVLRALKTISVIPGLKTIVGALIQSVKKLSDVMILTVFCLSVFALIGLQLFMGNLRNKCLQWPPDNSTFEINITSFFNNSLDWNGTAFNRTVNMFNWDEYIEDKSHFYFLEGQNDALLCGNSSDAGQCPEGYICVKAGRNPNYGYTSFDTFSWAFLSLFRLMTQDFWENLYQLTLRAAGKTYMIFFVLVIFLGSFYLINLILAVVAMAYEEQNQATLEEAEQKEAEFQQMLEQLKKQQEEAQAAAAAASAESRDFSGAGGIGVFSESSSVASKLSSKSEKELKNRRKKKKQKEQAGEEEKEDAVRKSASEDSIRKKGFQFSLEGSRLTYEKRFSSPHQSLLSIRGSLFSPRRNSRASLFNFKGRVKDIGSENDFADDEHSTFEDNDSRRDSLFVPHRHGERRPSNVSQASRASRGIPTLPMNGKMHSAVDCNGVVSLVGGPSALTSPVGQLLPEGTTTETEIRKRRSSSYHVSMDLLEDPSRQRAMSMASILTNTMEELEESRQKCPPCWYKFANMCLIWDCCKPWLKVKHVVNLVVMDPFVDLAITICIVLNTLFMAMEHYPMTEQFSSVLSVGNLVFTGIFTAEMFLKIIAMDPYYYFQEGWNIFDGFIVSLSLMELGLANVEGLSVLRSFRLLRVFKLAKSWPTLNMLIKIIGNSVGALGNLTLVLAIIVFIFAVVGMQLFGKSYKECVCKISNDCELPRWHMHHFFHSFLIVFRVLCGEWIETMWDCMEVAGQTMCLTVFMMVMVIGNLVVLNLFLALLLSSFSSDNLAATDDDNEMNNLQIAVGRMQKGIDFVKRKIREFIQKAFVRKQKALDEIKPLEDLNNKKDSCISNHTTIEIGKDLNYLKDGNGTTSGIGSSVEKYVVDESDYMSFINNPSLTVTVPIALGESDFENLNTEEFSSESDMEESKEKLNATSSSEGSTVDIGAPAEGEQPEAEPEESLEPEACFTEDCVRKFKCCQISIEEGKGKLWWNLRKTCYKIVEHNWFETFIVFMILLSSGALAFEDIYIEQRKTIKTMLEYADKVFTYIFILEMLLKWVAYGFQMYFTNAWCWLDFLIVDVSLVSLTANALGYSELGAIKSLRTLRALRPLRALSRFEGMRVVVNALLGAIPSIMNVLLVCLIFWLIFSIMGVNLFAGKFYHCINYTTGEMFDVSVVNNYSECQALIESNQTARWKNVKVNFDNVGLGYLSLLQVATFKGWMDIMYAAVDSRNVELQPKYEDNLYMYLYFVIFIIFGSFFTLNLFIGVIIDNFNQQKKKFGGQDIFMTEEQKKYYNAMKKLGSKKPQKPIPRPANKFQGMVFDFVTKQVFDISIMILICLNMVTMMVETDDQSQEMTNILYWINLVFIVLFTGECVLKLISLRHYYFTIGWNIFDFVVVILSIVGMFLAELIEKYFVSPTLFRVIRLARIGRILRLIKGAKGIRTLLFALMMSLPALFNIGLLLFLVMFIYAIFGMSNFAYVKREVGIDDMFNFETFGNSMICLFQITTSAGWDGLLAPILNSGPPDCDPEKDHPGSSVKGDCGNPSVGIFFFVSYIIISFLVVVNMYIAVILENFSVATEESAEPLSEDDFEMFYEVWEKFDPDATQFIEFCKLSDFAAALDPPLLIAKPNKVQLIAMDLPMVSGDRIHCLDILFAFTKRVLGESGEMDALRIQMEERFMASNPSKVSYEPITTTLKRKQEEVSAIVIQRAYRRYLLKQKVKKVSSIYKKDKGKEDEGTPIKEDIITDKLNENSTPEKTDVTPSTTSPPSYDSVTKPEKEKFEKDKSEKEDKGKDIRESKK
# T3 sequence (Q00954 19-218 partner): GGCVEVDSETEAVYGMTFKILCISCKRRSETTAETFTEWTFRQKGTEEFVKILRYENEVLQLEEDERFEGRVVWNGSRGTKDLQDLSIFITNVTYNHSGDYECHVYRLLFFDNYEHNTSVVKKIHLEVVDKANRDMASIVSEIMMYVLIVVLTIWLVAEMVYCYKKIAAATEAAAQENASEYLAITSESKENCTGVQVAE
# Kir3.1/2 channel = biological target: T4, Kir3.1/2 channel (UniProt P48542+P48549); assay: Whole-cell patch clamp, HEK293T cells, Kir3.1/2; format: cell-based, human Kir3.1, mouse Kir3.2; design: expressed in transfected cells; host or cells: HEK293T; conditions: whole-cell patch-clamp HEK-293 cells; read-out: IC50, inhibition of Kir3.1/2
# T4 sequence (P48549 1-501): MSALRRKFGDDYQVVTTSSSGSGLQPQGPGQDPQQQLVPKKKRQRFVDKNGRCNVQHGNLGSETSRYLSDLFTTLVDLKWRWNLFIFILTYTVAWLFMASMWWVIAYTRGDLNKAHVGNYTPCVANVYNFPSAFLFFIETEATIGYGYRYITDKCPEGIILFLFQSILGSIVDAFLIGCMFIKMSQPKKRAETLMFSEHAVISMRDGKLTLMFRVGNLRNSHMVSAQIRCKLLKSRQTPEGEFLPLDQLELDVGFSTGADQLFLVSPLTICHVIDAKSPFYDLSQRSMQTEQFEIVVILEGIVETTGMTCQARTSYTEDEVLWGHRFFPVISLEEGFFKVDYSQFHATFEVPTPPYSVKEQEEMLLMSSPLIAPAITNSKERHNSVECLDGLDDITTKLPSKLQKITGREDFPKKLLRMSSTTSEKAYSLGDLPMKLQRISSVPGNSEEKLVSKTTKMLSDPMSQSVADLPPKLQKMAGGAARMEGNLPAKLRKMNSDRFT
# T4 sequence (P48542 1-425): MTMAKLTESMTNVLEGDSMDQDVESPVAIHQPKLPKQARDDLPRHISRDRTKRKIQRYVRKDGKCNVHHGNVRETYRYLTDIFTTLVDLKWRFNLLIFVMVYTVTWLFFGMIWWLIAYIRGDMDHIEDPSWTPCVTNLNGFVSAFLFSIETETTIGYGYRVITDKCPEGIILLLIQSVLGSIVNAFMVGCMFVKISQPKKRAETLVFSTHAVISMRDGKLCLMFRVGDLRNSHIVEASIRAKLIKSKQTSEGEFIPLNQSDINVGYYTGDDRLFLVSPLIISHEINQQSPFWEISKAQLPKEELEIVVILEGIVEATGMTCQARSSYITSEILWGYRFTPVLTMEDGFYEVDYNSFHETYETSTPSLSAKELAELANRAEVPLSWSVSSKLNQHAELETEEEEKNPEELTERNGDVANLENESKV
# Procedure: For the experiments shown in Figure 1, G and H, whole-cell currents were recorded with an Axopatch 200B amplifier and pCLAMP software (Molecular Devices). HEK293T cells were transiently transfected with 1 μg Kir3.1 together with 1 μg Kir3.2 or 1 μg Kir3.4 DNA, using polyethylenimine (PEI). The cells were maintained in DMEM supplemented with 10% Fetal Bovine Serum and 1% Penicillin/Streptomycin at 37 °C in a 5% CO2 humidified atmosphere and were studied 24 to 48 h after transfection. HEK293T cells were bathed in Low K^+ (LK) solution (135 mM NaCl, 5 mM KCl, 1.2 mM MgCl2, 1.5 mM CaCl2, 8 mM Glucose, 10 mM HEPES with pH 7.4). High K^+ (HK) solution (5 mM NaCl, 135 mM KCl, 1.2 mM MgCl2, 1.5 mM CaCl2, 8 mM Glucose, 10 mM HEPES with pH 7.4) was perfused to establish basal currents. BP-G1 in HK solution was perfused sequentially in a concentration response manner prior to applying 5 mM BaCl2 in HK to identify remaining barium-insensitive leak currents and subtract them from the current records. […] Cells used in the experiments were selected based on eGFP fluorescence. A ramp protocol from −80 mV to +80 mV was used and currents were recorded at −80 mV in the whole-cell mode (using the Strathclyde Electrophysiology Software from the University of Strathclyde, Glasgow). The patch-clamp data were analyzed offline in pClamp (Molecular Devices) and OriginLab software. […]
# hERG channel = hERG channel (Homo sapiens, UniProt Q12809); assay: hERG currents in Xenopus oocytes, TEVC
# hERG channel, sequence (Q12809 whole entry): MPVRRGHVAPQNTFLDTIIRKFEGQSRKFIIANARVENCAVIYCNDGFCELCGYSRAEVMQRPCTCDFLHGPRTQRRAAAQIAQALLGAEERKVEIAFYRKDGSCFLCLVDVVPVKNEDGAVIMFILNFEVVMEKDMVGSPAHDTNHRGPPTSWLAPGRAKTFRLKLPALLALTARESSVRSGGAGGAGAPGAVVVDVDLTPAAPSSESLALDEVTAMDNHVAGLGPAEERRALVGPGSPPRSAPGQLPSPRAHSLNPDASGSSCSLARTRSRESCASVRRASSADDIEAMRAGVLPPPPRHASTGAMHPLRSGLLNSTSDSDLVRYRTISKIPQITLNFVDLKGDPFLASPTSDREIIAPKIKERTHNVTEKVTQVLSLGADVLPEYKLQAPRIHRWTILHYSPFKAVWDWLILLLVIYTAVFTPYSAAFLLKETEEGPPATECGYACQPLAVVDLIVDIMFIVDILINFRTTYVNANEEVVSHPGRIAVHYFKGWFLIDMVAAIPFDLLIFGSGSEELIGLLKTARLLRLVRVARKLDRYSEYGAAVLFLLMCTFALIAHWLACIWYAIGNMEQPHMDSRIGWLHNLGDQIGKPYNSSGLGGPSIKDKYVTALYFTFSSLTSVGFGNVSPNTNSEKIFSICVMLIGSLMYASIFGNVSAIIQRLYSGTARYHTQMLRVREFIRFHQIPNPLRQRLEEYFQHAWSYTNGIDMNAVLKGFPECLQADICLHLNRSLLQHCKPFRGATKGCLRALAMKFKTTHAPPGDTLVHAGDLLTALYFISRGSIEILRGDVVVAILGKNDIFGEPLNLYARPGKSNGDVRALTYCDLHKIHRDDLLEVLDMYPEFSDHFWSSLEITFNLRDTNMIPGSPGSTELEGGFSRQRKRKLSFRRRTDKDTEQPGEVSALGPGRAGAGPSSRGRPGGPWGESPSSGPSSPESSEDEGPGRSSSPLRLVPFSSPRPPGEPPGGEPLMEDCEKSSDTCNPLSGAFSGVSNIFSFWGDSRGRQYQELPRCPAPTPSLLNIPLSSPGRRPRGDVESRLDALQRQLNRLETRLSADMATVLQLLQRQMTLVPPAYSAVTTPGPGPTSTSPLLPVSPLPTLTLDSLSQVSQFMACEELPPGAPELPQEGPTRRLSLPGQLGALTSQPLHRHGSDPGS
smiles,measurement,setting,value
"Cc1cc(CO)nc2cc3c(cc12)OC(C)(C)[C@H](O)[C@H]3NCCc1ccccc1 [BP-G1, (3R,4S)-7-(hydroxymethyl)-2,2,9-trimethyl-4-(2-phenylethylamino)-3,4-dihydropyrano[2,3-g]quinolin-3-ol]",IC50,Kir2.1,> 10000 nM
same,inhibition at 10 µM,Neurokinin NK1,42.6%
same,block of TTX-sensitive NaV1.2 currents,NaV1.2 and NaVβ1; 10 µM,did not block
same,average NaV1.2 current,"NaV1.2 and NaVβ1; 10 μM BP-G1, vehicle -2.16 ± 0.36 μA, mean ± SD, N=10",-2.17 μA
same,"IC50, NaV1.2",NaV1.2 and NaVβ1; Table S1,> 10000 nM
same,IC50,Kir3.1/2 channel,10 to 30 nM and 32.2 nM
same,IC50,hERG channel,> 5000 nM
same,inhibitory activity on hERG current,"hERG channel; up to 5 μM, Xenopus oocytes",did not show inhibitory activity; also recorded: not inhibited
